Laboratory results as given in ChEMBL document CHEMBL1145306, “Synthesis of 2-C-hydroxymethylribofuranosylpurines as potent anti-hepatitis C virus (HCV) agents” (2006).

Assays:
Hepatitis C virus [1] = assay: Antiviral activity against HCV in Huh7 cell line at 1 uM assessed as reduction in luciferase activity; format: functional, Hepacivirus hominis; settings: Huh-7
Hepatitis C virus [2] = assay: Antiviral activity against HCV in Huh7 cell line at 10 uM assessed as reduction in luciferase activity; format: functional, Hepacivirus hominis; settings: Huh-7

Nc1ncnc2c1ncn2[C@@H]1O[C@H](CO)[C@@H](O)[C@]1(O)CO
inhibition at 1 µM (Hepatitis C virus [1]): 2% | inhibition at 10 µM (Hepatitis C virus [2]): 50%
